ChEMBL document CHEMBL2169851, “Imidazopyridazinones as novel PDE7 inhibitors: SAR and in vivo studies in Parkinson's disease model” (Bioorg Med Chem Lett, 2012)
Calls of active or inactive are those of the source. The calls are words filed in the database; no cut-off is given here.

Assays:
Mus musculus [1] = test: Antiparkinsonian activity in C57BL/6 mouse assessed as decrease in MPTP-induced vertical rearing behavior impairment at 12.5 mg/kg, ip administered 30 mins on day 7 post MPTP challenge; type: functional, organism-based; parameters: dose 12.5 mg/kg
[2] = molecular target: T1, High affinity 3',5'-cyclic-AMP phosphodiesterase 7A (Homo sapiens, UniProt Q13946); test: Inhibition of cloned human recombinant PDE7A assessed as [3H]cAMP hydrolysis at 1 uM by radiometric assay
T1 sequence (Q13946 whole entry): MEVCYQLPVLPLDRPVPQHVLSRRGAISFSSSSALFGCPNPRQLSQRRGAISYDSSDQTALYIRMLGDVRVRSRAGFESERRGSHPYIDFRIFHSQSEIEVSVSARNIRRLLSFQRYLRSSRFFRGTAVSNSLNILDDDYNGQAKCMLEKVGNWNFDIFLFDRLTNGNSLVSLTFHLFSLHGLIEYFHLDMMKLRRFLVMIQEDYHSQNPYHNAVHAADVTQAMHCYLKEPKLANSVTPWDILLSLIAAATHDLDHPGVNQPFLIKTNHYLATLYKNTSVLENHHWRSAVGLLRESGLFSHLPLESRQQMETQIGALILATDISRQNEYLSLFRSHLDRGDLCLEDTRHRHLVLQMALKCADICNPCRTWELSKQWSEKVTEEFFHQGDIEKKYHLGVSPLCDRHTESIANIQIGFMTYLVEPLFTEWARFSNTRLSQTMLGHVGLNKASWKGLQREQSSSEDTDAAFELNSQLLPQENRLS

[3] = Plasma concentration in C57 mouse at 10 mg/kg, ip after 30 mins; type: ADME, organism-based; parameters: dose 10 mg/kg, route intraperitoneal
[4] = Metabolic stability in human liver microsomes assessed as compound remaining after 60 mins; type: ADME, Microsome; conditions: read-out: Stability
[5] = Cmax in C57 mouse at 10 mg/kg, ip; type: ADME, organism-based; parameters: dose 10 mg/kg, route intraperitoneal; conditions: in vivo
[6] = Tmax in C57 mouse at 10 mg/kg, ip; type: ADME, organism-based; parameters: dose 10 mg/kg, route intraperitoneal; conditions: in vivo
[7] = molecular target: 3',5'-cyclic-AMP phosphodiesterase 4D (Homo sapiens, UniProt Q08499); test: Inhibition of cloned human recombinant PDE4D assessed as [3H]cAMP hydrolysis at 10 uM by radiometric assay
Chain of 3',5'-cyclic-AMP phosphodiesterase 4D (Q08499 whole entry): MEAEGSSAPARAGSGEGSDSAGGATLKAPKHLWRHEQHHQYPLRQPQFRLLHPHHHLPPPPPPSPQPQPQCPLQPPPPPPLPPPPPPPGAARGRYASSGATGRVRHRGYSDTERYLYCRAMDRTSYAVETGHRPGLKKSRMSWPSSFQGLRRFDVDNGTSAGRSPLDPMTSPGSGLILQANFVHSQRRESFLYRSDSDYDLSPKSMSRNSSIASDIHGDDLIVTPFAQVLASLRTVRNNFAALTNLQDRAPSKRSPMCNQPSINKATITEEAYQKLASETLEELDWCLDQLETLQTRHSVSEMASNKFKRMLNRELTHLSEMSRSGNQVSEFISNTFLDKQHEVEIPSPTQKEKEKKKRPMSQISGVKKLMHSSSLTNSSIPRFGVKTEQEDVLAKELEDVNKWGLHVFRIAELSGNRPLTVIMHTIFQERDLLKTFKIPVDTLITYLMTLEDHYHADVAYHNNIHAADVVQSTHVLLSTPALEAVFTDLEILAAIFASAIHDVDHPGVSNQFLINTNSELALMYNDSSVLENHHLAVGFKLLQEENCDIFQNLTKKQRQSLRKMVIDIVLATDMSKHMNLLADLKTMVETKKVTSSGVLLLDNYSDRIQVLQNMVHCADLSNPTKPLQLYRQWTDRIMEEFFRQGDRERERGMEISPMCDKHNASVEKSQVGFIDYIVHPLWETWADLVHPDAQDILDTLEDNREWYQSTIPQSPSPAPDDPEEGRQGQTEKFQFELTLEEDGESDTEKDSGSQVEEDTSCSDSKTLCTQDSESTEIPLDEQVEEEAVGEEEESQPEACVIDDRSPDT

[8] = Ratio of drug level in brain to plasma in C57 mouse at 10 mg/kg, ip after 30 mins; type: ADME, organism-based; parameters: dose 10 mg/kg, route intraperitoneal; conditions: read-out: BPR
[9] = Metabolic stability in mouse liver microsomes assessed as compound remaining after 60 mins; type: ADME, Microsome; conditions: read-out: Stability
[10] = molecular target: T1, High affinity 3',5'-cyclic-AMP phosphodiesterase 7A; test: Inhibition of cloned human recombinant PDE7A assessed as [3H]cAMP hydrolysis by radiometric assay
[11] = molecular target: High affinity cAMP-specific and IBMX-insensitive 3',5'-cyclic phosphodiesterase 8A (Homo sapiens) (UniProt O60658); test: Inhibition of cloned human recombinant PDE8A1 assessed as [3H]cAMP hydrolysis at 10 uM by radiometric assay
Chain of High affinity cAMP-specific and IBMX-insensitive 3',5'-cyclic phosphodiesterase 8A (Homo sapiens) (O60658 whole entry): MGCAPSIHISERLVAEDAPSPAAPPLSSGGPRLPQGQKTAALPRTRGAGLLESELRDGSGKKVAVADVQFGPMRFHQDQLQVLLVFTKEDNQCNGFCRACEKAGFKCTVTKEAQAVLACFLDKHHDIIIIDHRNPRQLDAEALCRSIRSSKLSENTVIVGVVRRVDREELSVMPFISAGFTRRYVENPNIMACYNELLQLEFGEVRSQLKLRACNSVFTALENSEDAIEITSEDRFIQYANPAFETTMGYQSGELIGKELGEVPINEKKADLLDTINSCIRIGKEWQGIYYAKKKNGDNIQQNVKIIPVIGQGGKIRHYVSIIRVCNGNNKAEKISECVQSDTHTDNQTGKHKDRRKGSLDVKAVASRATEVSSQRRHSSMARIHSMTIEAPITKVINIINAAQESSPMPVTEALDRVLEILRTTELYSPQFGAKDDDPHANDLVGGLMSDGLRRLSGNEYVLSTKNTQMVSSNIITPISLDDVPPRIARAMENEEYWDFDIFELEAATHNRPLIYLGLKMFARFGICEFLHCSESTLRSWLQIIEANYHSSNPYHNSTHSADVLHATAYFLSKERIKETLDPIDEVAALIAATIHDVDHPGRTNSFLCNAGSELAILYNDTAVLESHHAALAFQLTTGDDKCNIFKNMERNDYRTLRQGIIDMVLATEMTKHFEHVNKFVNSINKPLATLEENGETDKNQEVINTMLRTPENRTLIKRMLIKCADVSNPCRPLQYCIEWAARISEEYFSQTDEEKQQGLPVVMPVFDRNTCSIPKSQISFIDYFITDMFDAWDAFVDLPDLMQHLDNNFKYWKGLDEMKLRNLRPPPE

[12] = AUC in C57 mouse at 10 mg/kg, ip; type: ADME, organism-based; parameters: dose 10 mg/kg, route intraperitoneal; conditions: plasma
[13] = molecular target: cAMP and cAMP-inhibited cGMP 3',5'-cyclic phosphodiesterase 10A (Homo sapiens) (UniProt Q9Y233); test: Inhibition of cloned human recombinant PDE10A assessed as [3H]cAMP hydrolysis at 10 uM by radiometric assay
[14] = molecular target: cGMP-specific 3',5'-cyclic phosphodiesterase (Homo sapiens) (UniProt O76074); test: Inhibition of cloned human recombinant PDE5A assessed as [3H]cAMP hydrolysis at 10 uM by radiometric assay
[15] = Drug uptake in C57 mouse brain at 10 mg/kg, ip after 30 mins; type: ADME, organism-based; parameters: dose 10 mg/kg, route intraperitoneal; conditions: read-out: Drug uptake
[16] = molecular target: Dual specificity calcium/calmodulin-dependent 3',5'-cyclic nucleotide phosphodiesterase 1A (Homo sapiens) (UniProt P54750); test: Inhibition of cloned human recombinant PDE1A assessed as [3H]cAMP hydrolysis at 10 uM by radiometric assay
Chain of Dual specificity calcium/calmodulin-dependent 3',5'-cyclic nucleotide phosphodiesterase 1A (Homo sapiens) (P54750 whole entry): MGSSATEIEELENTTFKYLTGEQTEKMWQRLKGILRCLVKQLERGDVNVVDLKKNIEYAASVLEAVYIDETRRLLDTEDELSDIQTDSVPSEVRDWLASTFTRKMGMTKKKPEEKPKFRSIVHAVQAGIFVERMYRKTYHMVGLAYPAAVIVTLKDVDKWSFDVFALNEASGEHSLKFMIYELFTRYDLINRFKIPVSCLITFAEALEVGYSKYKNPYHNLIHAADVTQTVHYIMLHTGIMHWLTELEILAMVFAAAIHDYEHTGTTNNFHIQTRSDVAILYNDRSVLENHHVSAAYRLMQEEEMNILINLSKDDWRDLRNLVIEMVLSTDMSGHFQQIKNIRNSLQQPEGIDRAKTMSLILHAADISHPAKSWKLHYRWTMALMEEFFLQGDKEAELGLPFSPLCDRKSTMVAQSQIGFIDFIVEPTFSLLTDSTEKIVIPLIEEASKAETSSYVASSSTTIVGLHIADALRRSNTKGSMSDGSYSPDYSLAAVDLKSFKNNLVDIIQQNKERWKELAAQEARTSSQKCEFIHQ

[17] = molecular target: cGMP-dependent 3',5'-cyclic phosphodiesterase (Homo sapiens) (UniProt O00408); test: Inhibition of cloned human recombinant PDE2A assessed as [3H]cAMP hydrolysis at 10 uM by radiometric assay
Chain of cGMP-dependent 3',5'-cyclic phosphodiesterase (Homo sapiens) (O00408 whole entry): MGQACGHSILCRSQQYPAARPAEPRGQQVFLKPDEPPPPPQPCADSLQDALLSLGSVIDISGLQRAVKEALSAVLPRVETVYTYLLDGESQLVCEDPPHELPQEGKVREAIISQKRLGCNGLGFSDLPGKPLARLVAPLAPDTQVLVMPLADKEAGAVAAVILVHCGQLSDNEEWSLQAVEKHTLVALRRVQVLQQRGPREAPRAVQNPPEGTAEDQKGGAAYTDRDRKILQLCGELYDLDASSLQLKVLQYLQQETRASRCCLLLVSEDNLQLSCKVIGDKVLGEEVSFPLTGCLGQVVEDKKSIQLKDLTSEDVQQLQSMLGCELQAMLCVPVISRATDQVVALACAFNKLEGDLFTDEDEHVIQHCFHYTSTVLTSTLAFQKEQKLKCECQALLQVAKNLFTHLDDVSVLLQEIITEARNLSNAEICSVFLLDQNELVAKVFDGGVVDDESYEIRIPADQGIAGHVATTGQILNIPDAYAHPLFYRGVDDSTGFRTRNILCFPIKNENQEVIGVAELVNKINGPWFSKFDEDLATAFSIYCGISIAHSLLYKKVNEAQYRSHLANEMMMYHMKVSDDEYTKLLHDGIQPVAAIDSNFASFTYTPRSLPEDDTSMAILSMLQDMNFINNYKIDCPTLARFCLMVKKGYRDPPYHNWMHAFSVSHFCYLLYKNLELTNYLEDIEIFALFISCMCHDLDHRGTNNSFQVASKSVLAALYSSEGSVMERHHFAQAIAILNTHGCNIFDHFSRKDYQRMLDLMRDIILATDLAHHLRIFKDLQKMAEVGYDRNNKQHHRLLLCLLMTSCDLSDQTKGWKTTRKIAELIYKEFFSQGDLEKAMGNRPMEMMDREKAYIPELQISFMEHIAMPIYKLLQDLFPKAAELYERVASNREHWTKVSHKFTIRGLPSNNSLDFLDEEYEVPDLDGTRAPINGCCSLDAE

[18] = molecular target: cGMP-inhibited 3',5'-cyclic phosphodiesterase 3A (Homo sapiens) (UniProt Q14432); test: Inhibition of cloned human recombinant PDE3A assessed as [3H]cAMP hydrolysis at 10 uM by radiometric assay
[19] = Metabolic stability in rat liver microsomes assessed as compound remaining after 60 mins; type: ADME, Microsome; conditions: read-out: Stability
[20] = molecular target: High affinity cGMP-specific 3',5'-cyclic phosphodiesterase 9A (Homo sapiens) (UniProt O76083); test: Inhibition of cloned human recombinant PDE9A2 assessed as [3H]cAMP hydrolysis at 10 uM by radiometric assay
Chain of High affinity cGMP-specific 3',5'-cyclic phosphodiesterase 9A (Homo sapiens) (O76083 whole entry): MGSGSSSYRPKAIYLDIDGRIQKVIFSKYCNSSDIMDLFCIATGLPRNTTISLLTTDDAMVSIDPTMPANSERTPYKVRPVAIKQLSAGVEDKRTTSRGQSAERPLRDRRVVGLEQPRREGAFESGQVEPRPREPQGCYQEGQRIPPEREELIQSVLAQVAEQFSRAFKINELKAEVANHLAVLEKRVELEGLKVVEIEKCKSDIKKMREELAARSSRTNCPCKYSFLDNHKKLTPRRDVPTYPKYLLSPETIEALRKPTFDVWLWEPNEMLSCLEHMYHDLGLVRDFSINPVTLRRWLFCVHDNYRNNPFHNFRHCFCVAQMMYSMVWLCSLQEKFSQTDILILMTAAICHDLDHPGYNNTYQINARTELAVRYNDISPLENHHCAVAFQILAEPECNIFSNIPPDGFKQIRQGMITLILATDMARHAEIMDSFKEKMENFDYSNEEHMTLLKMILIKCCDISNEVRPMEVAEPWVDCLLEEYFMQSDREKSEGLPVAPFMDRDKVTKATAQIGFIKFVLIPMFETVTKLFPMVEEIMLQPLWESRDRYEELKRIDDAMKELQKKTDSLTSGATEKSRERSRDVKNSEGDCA

[21] = molecular target: 3',5'-cyclic-AMP phosphodiesterase 7B (Homo sapiens, UniProt Q9NP56); test: Inhibition of cloned human recombinant PDE7B assessed as [3H]cAMP hydrolysis by radiometric assay
Chain of 3',5'-cyclic-AMP phosphodiesterase 7B (Q9NP56 whole entry): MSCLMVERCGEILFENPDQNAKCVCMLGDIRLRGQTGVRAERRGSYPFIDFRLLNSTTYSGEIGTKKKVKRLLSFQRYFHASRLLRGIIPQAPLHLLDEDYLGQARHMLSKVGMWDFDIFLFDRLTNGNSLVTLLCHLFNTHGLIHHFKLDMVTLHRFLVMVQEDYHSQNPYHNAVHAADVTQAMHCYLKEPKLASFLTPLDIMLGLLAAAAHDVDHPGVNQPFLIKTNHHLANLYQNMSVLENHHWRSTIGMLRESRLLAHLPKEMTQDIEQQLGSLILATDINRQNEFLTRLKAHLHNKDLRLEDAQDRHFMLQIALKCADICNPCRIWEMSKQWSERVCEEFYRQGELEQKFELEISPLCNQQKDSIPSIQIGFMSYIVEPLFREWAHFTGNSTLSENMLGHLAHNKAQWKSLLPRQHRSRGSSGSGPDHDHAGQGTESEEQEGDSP

[22] = molecular target: Dual 3',5'-cyclic-AMP and -GMP phosphodiesterase 11A (Homo sapiens) (UniProt Q9HCR9); test: Inhibition of cloned human recombinant PDE11A assessed as [3H]cAMP hydrolysis at 10 uM by radiometric assay
Mus musculus [23] = test: Neurotoxicity in sc dosed C57BL/6 mouse assessed as induction of catalepsy measured at 0.5 to 1 hr; type: toxicity, organism-based; conditions: in vivo
Mus musculus [24] = test: Antiparkinsonian activity in C57BL/6 mouse assessed as decrease in MPTP-induced vertical rearing behavior impairment at 15 mg/kg, sc administered 30 mins on day 7 post MPTP challenge; type: functional, organism-based; parameters: dose 15 mg/kg

## NC(CO)C(=O)NNCc1ccc(O)c(O)c1O (stereo not given)
Mus musculus [1]
  Activity: Active

## COc1cc(N2CCC(N)CC2)ccc1-c1nc2c(C)nn(Cc3ccccc3)c(=O)c2[nH]1
[2]
  inhibition: 13%

## COc1cc(N2CCC(N)CC2)ccc1-c1nc2c(C)nn(C3CCCCC3)c(=O)c2[nH]1
[3]
  concentration at 0.5 h: 451 ng/mL
[4]
  remaining at 1 h: 100%
[5]
  Cmax: 902 ng/mL
[6]
  Tmax: 4 h
[7]
  inhibition: 81%
[8]
  Kp at 0.5 h: 0.1
[9]
  remaining at 1 h: 44%
[10]
  IC50: 0.027 µM
[11]
  inhibition: 6%
[12]
  AUC: 2300 ng·h/mL
[13]
  inhibition: 40%
[14]
  inhibition: 32%
[15]
  concentration at 0.5 h: 46 ng/g
[16]
  inhibition: 16%
[17]
  inhibition: 40%
[18]
  inhibition: 2%
[2]
  inhibition: 96%
[19]
  remaining at 1 h: 100%
[20]
  inhibition: 9%
[21]
  IC50: 0.011 µM
[22]
  inhibition: 44%

## COc1cc(CCC(N)=O)ccc1-c1nc2c(C)nn(C3CCCCC3)c(=O)c2[nH]1
[10]
  IC50: 0.093 µM

## COc1cc(-c2n[nH]c(=O)o2)ccc1-c1nc2c(C)nn(C3CCCCC3)c(=O)c2[nH]1
[10]
  IC50: 0.068 µM

## COc1cc(N2CC[C@H](N)C2)ccc1-c1nc2c(C)nn(C3CCCCC3)c(=O)c2[nH]1
[10]
  IC50: 0.08 µM

## O=C(CCCN1CCC(O)(c2ccc(Cl)cc2)CC1)c1ccc(F)cc1 [HALOPERIDOL]
Mus musculus [23]
  Activity: Dose-dependent effect

## COc1cc(O[C@@H]2CCNC2)ccc1-c1nc2c(C)nn(C3CCCCC3)c(=O)c2[nH]1
[10]
  IC50: 0.055 µM

## COc1cc(/C=C/C(N)=O)ccc1-c1nc2c(C)nn(C3CCCCC3)c(=O)c2[nH]1
[10]
  IC50: 0.089 µM

## CNC(=O)Nc1ccc(-c2nc3c(C)nn(C4CCCCC4)c(=O)c3[nH]2)c(OC)c1
[10]
  IC50: 0.024 µM

## COc1cc(N2CCC(N)CC2)ccc1-c1nc2c(C)nn(C3CCN(C)CC3)c(=O)c2[nH]1
[2]
  inhibition: 7%

## COc1cc(N2CCNC(=O)C2)ccc1-c1nc2c(C)nn(C3CCCCC3)c(=O)c2[nH]1
[10]
  IC50: 0.018 µM

## N[C@@H](Cc1ccc(O)c(O)c1)C(=O)O
Mus musculus [24]
  Activity: Active

## COc1cc(N2CCC(N)CC2)ccc1-c1nc2c(C)nn(C3CCCCCC3)c(=O)c2[nH]1
[10]
  IC50: 0.075 µM
[2]
  inhibition: 92%
